Laboratory results from US12595230B2, “Substituted 6,7-dihydro-5H-benzo[7]annulene compounds and their derivatives, processes for their preparation and therapeutic uses thereof” (Sanofi, priority 2020, dated 2026).

Molecular target: T1, ERα (Homo sapiens, UniProt P03372)
T1 construct: host or cells: MCF7
T1 sequence (P03372 1-595): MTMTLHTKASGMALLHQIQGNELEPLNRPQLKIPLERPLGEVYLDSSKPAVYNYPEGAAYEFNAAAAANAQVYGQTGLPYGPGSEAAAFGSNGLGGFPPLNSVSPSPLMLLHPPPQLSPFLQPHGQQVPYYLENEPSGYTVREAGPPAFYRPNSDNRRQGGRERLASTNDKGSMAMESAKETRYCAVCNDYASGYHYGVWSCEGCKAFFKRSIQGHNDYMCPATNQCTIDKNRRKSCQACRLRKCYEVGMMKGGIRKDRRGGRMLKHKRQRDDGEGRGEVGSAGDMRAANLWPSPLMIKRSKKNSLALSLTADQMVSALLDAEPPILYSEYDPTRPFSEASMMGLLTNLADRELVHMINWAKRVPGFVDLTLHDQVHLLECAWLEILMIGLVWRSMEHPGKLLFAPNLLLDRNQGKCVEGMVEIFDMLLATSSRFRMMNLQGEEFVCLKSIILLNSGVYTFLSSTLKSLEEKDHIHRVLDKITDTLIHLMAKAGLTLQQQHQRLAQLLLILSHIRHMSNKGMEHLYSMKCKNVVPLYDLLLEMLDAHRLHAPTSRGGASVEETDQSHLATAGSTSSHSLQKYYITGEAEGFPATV
Assay: Estrogen receptor degradation activity: breast cancer cell ERα in cell western assay (MCF7 cells)
Assay type: cell-based
Conditions: for % Degradation At 0.3 μM: 4 hours, relative to fulvestrant 0.1 μM positive control; for DC50: read-out: Degradation IC50
Description: Test: Estrogen Receptor Degradation Activity Said test involves measuring the in vitro degradation activity of the compounds of the Table 1a. The measurements of the degradation activities were made using a breast cancer cell ERα in cell western assay as described hereunder. MCF7 cells (ATCC) were seeded in 384 wells microplate (collagen coated) at a concentration of 10000 cells/30 μL per well in red phenol free MEM alpha medium (invitrogen) containing 5% charcoal dextran striped FBS. The following day, 9 points serial 1:5 dilution of each compound was added to the cells in 2.5p L at final concentrations ranging from 0.3-0.0000018 μM (in table 2), or 0.1 μM for fulvestrant (using as positive control). At 4 hours post compound addition the cells were fixed by adding 25 μL of formalin (final concentration 5% formalin containing 0.1% triton) for 10 minutes at room temperature and then washed twice with PBS. Then, 50 μL of LI-COR blocking buffer containing 0.1% Triton was added to plate for 30 minutes at room temperature. LI-COR blocking buffer was removed and cells were incubated overnight at cold room with 50 μL anti-ER rabbit monoclonal antibody (Thermo scientific MA1-39540) diluted at 1:1000 in LI-COR blocking buffer containing 0.1% tween-20. Wells which were treated with blocking buffer but no antibody were used as background control. Wells were washed twice with PBS (0.1% tween-20) and incubated at 37° C. for 60 minutes in LI-COR (0.1% tween-20) containing goat anti-rabbit antibody Alexa 488 (1:1000) and Syto-64 a DNA dye (2 μM final concentration). Cells were then washed 3 times in PBS and scanned in ACUMEN explorer (TTP-Labtech). Integrated intensities in the green fluorescence and red fluorescence were measured to determine the levels of ERα and DNA respectively. The degradation activity with respect to estrogen receptors in this test is given by the concentration which degrades 50% of the estrogen receptor (or IC50) in nM. […] DMSO−fulvestrant)).

[1] = 4 hours post compound addition, concentration which degrades 50% of the estrogen receptor

Structure (SMILES)	% Degradation At 0.3 μM	DC50 [1]	IC50 [1]
CC(C)C1CCc2cc(C(=O)O)ccc2C(c2ccc(CC3CN(CCCF)C3)cc2)=C1c1ccc(Cl)cc1Cl (single isomer, unassigned) [Example 322, 8-(2,4-dichlorophenyl)-9-(4-((1-(3-fluoropropyl)azetidin-3-yl)methyl)phenyl)-7-isopropyl-6,7-dihydro-5H-benzo[7]annulene-3-carboxylic acid]	87%	0.6 nM	
O=C(O)c1ccc2c(c1)CCCC(c1ccc(Cl)cc1C(F)(F)F)=C2c1ccc(CC2CN(CCC(F)F)C2)cc1 [Example 289, 8-(4-chloro-2-(trifluoromethyl)phenyl)-9-(4-((1-(3,3-difluoropropyl)azetidin-3-yl)methyl)phenyl)-6,7-dihydro-5H-benzo[7]annulene-3-carboxylic acid]	86%	0.3 nM	
Cc1ccc(C2=C(c3ccc(CC4CN(CCCF)C4)cc3)c3ccc(C(=O)O)cc3CCC2)c(C)c1.Cl [Example 10, 8-(2,4-dimethylphenyl)-9-(4-((1-(3-fluoropropyl)azetidin-3-yl)methyl)phenyl)-6,7-dihydro-5H-benzo[7]annulene-3-carboxylic acid]	92%	0.3 nM	
O=C([O-])c1ccc2c(c1)CCCC(c1cc(F)cc(C(F)F)c1)=C2c1ccc(CC2CN(CCCF)C2)cc1.[Na+] [Example 251, sodium 8-(3-(difluoromethyl)-5-fluorophenyl)-9-(4-((1-(3-fluoropropyl)azetidin-3-yl)methyl)phenyl)-6,7-dihydro-5H-benzo[7]annulene-3-carboxylate]	87%	0.7 nM	
O=C(O)c1ccc2c(c1)CCCC(c1cccc(C(F)(F)F)c1Cl)=C2c1ccc(CC2CN(CCC(F)(F)F)C2)cc1 [Example 257, 8-(2-chloro-3-(trifluoromethyl)phenyl)-9-(4-((1-(3,3,3-trifluoropropyl)azetidin-3-yl)methyl)phenyl)-6,7-dihydro-5H-benzo[7]annulene-3-carboxylic acid]	83%	0.7 nM	
CC1(C)CCC(C2=C(c3ccc(CC4CN(CCCF)C4)cc3)c3ccc(C(=O)O)cc3CCC2)CC1.Cl [Example 13, 8-(4,4-dimethylcyclohexyl)-9-(4-((1-(3-fluoropropyl)azetidin-3-yl)methyl)phenyl)-6,7-dihydro-5H-benzo[7]annulene-3-carboxylic acid]	85%	0.3 nM	
Cl.O=C(O)c1ccc2c(c1)SCCC(c1ccc(Cl)cc1Cl)=C2c1ccc(CC2CN(CCCF)C2)cc1 [Example 52, 4-(2,4-dichlorophenyl)-5-(4-((1-(3-fluoropropyl)azetidin-3-yl)methyl)phenyl)-2,3-dihydrobenzo[b]thiepine-8-carboxylic acid]	54%	255 nM	
Cl.O=C(O)c1ccc2c(c1)CCCC(c1ccc(F)cc1Cl)=C2c1ccc(CC2CN(CCCF)C2)cc1 [Example 8, 8-(2-chloro-4-fluorophenyl)-9-(4-((1-(3-fluoropropyl)azetidin-3-yl)methyl)phenyl)-6,7-dihydro-5H-benzo[7]annulene-3-carboxylic acid]	92%	0.4 nM	
Cc1cccc(C2=C(c3ccc(CC4CN(CCCF)C4)cc3)c3ccc(C(=O)O)cc3CCC2)c1C(F)(F)F.Cl [Example 313, 9-(4-((1-(3-fluoropropyl)azetidin-3-yl)methyl)phenyl)-8-(3-methyl-2-(trifluoromethyl)phenyl)-6,7-dihydro-5H-benzo[7]annulene-3-carboxylic acid hydrochloride]	90%	0.3 nM	
O=C(O)c1ccc2c(c1)CCCC(c1ccc(Cl)cc1Cl)=C2c1ccc(CC2CN(CCC(F)F)C2)cc1 [Example 223, 8-(2,4-dichlorophenyl)-9-(4-((1-(3,3-difluoropropyl)azetidin-3-yl)methyl)phenyl)-6,7-dihydro-5H-benzo[7]annulene-3-carboxylic acid]	92%	0.2 nM	

Continued, values first:

% Degradation At 0.3 μM	DC50 [1]	IC50 [1]	Structure (SMILES)
89%	0.7 nM		O=C(O)c1ccc2c(c1)CCCC(C1CC3(C1)CC(F)(F)C3)=C2c1ccc(CC2CN(CCCF)C2)cc1 [Example 51, 8-(6,6-difluorospiro[3.3]heptan-2-yl)-9-(4-((1-(3-fluoropropyl)azetidin-3-yl)methyl)phenyl)-6,7-dihydro-5H-benzo[7]annulene-3-carboxylic acid]
67%	48.6 nM		O=C(O)c1ccc2c(c1)CCCC(c1ccccc1Cl)=C2c1ccc(CC2CN(CCCF)C2)cn1 [Example 252, 8-(2-chlorophenyl)-9-(5-((1-(3-fluoropropyl)azetidin-3-yl)methyl)pyridin-2-yl)-6,7-dihydro-5H-benzo[7]annulene-3-carboxylic Acid]
90%	0.5 nM		Cc1ccc(C2=C(c3ccc(CC4CN(CCCF)C4)cc3)c3ccc(C(=O)O)cc3CCC2)c(Cl)c1.Cl [Example 7, 8-(2-chloro-4-methylphenyl)-9-(4-((1-(3-fluoropropyl)azetidin-3-yl)methyl)phenyl)-6,7-dihydro-5H-benzo[7]annulene-3-carboxylic acid]
90%	0.4 nM		Cc1cc2c(cc1C(=O)O)CCCC(c1ccc(Cl)cc1Cl)=C2c1ccc(CC2CN(CCCF)C2)cc1 [Example 249, 8-(2,4-dichlorophenyl)-9-(4-((1-(3-fluoropropyl)azetidin-3-yl)methyl)phenyl)-2-methyl-6,7-dihydro-5H-benzo[7]annulene-3-carboxylic acid]
86%	0.4 nM		O=C(O)c1cc2c(cc1F)C(c1ccc(CC3CN(CCCF)C3)cc1)=C(c1ccc(Cl)cc1Cl)CCC2 [Example 206, 8-(2,4-dichlorophenyl)-2-fluoro-9-(4-((1-(3-fluoropropyl)azetidin-3-yl)methyl)phenyl)-6,7-dihydro-5H-benzo[7]annulene-3-carboxylic acid]
89%	0.3 nM		O=C(O)c1ccc2c(c1)CCCC(c1c(F)cccc1C(F)(F)F)=C2c1ccc(CC2CN(CCCF)C2)cc1 [Example 31, 8-(2-fluoro-6-(trifluoromethyl)phenyl)-9-(4-((1-(3-fluoropropyl)azetidin-3-yl)methyl)phenyl)-6,7-dihydro-5H-benzo[7]annulene-3-carboxylic acid]
84%		0.2 nM	O=C(O)c1ccc2c(c1)CCCC(c1cccc(F)c1C(F)(F)F)=C2c1ccc(CC2CN(CCC(F)F)C2)cc1 [Example 278, 9-(4-((1-(3,3-difluoropropyl)azetidin-3-yl)methyl)phenyl)-8-(3-fluoro-2-(trifluoromethyl)phenyl)-6,7-dihydro-5H-benzo[7]annulene-3-carboxylic acid]
100%	0.4 nM		CC(O)(c1ccc(C2=C(c3ccc(Cl)cc3Cl)CCCc3cc(C(=O)O)ccc32)cc1)C1CN(CCCF)C1.Cl (single isomer, unassigned; isomer 2) [Example 236, 8-(2,4-dichlorophenyl)-9-(4-(1-(1-(3-fluoropropyl)azetidin-3-yl)-1-hydroxyethyl)phenyl)-6,7-dihydro-5H-benzo[7]annulene-3-carboxylic Acid, Hydrochloride Isomer 2]
88%	5.8 nM		O=C(O)c1ccc2c(c1)CCCC(c1ccc(Cl)cc1C(F)(F)F)=C2c1ccc(CC2(F)CN(CCCF)C2)cc1 [Example 237, 8-(4-chloro-2-(trifluoromethyl)phenyl)-9-(4-((3-fluoro-1-(3-fluoropropyl)azetidin-3-yl)methyl)phenyl)-6,7-dihydro-5H-benzo[7]annulene-3-carboxylic acid]
